For 26 compounds, IC50 results are on record in patent publication US11427567B2, “Imidazolyl pyrimidinylamine compounds as CDK2 inhibitors” (Incyte Corporation, priority 2019, dated 2022).

SMILES strings stand for the structures.

This assay addresses CDK2/Cyclin E1 (Homo sapiens (Human), UniProt P24941). Briefly: CDK2/Cyclin E1 HTRF enzyme activity assay (Example A). Format: biochemical. To be noted: 1 mM ATP. Here is the method:
Assays were conducted in white 384-well polystyrene plates in a final reaction volume of 8 μL. […] HTRF signals were read after 1 hour at room temperature on a PHERAstar FS plate reader (BMG Labtech). Data was analyzed with IDBS XLFit and GraphPad Prism 5.0 software using a three or four parameter dose response curve to determine IC50 for each compound.

The IC50 is the concentration needed to halve the response being measured. Read a low IC50 as inhibition by little substance. Compound `Cc1c(-n2cnc(-c3nc(NC4CCN(S(C)(=O)=O)CC4)ncc3C(F)(F)F)c2)ccc2nccnc12` [Example 166, 4-(1-(5-Methylquinoxalin-6-yl)-1H-imidazol-4-yl)-N-(1-(methylsulfonyl)piperidin-4-yl)-5-(trifluoromethyl)pyrimidin-2-amine] displayed an IC50 not above 50 nM.

In the case of `CS(=O)(=O)N1CCC(Nc2ncc(C(F)(F)F)c(-c3cn(-c4ccc5nccnc5c4C#N)cn3)n2)CC1` [Example 167, 6-(4-(2-((1-(Methylsulfonyl)piperidin-4-yl)amino)-5-(trifluoromethyl)pyrimidin-4-yl)-1H-imidazol-1-yl)quinoxaline-5-carbonitrile], the IC50 is not above 50 nM.

Regarding `Cc1cc(C#N)ncc1-n1cnc(-c2nc(NC3CCN(S(C)(=O)=O)CC3)ncc2C(F)(F)F)c1` [Example 168, 4-Methyl-5-(4-(2-((1-(methylsulfonyl)piperidin-4-yl)amino)-5-(trifluoromethyl)pyrimidin-4-yl)-1H-imidazol-1-yl)picolinonitrile], the IC50 was not above 50 nM.

`Cc1nn(C)cc1-n1cnc(-c2nc(NC3CCN(S(C)(=O)=O)CC3)ncc2C(F)(F)F)c1` [Example 169, 4-(1-(1,3-Dimethyl-1H-pyrazol-4-yl)-1H-imidazol-4-yl)-N-(1-(methylsulfonyl)piperidin-4-yl)-5-(trifluoromethyl)pyrimidin-2-amine] yielded an IC50 not above 50 nM.

`CS(=O)(=O)N1CCC(Nc2ncc(C(F)(F)F)c(-c3ncn(-c4ccc(C#N)cc4Cl)c3Cl)n2)CC1` [Example 170, 3-Chloro-4-(5-chloro-4-(2-((1-(methylsulfonyl)piperidin-4-yl)amino)-5-(trifluoromethyl)pyrimidin-4-yl)-1H-imidazol-1-yl)benzonitrile] yielded a 50% inhibitory concentration (IC50) not above 50 nM.

Turning to `CS(=O)(=O)N1CCC(Nc2ncc(Cl)c(-c3cn(-c4ccc(C#N)cc4Cl)cn3)n2)CC1` [Example 171, 3-Chloro-4-(4-(5-chloro-2-((1-(methylsulfonyl)-piperidin-4-yl)-amino)pyrimidin-4-yl)-1H-imidazol-1-yl)benzonitrile], the IC50 was not above 50 nM.

Regarding `C[C@@H]1CN(S(C)(=O)=O)CC[C@@H]1Nc1ncc(C(F)(F)F)c(-c2cn(-c3ccc(C#N)cc3Cl)cn2)n1` [Example 172, 3-Chloro-4-(4-(2-(((3R,4S)-3-methyl-1-(methylsulfonyl)-piperidin-4-yl)-amino)-5-(trifluoro-methyl)pyrimidin-4-yl)-1H-imidazol-1-yl)benzonitrile], the 50% inhibitory concentration (IC50) was not above 50 nM.

Consider `CS(=O)(=O)N1CC[C@@H](Nc2ncc(C(F)(F)F)c(-c3cn(-c4ccc(C#N)cc4Cl)cn3)n2)[C@H](F)C1` [Example 173, 3-Chloro-4-(4-(2-(((3R,4R)-3-fluoro-1-(methylsulfonyl)-piperidin-4-yl)-amino)-5-(trifluoro-methyl)pyrimidin-4-yl)-1H-imidazol-1-yl)benzonitrile], for which the IC50 is not above 50 nM.

Consider `CC(=O)N(C)Cc1ccc(-n2cnc(-c3nc(NC4CCN(S(C)(=O)=O)CC4)ncc3C(F)(F)F)c2)c(Cl)c1` [Example 174, N-(3-Chloro-4-(4-(2-((1-(methylsulfonyl)piperidin-4-yl)amino)-5-(trifluoromethyl)pyrimidin-4-yl)-1H-imidazol-1-yl)benzyl)-N-methylacetamide], for which the half-inhibitory concentration (IC50) was not above 50 nM.

As to `CN(C)Cc1ccc(-n2cnc(-c3nc(NC4CCN(S(C)(=O)=O)CC4)ncc3C(F)(F)F)c2)c(Cl)c1` [Example 175, 4-(1-(2-Chloro-4-((dimethylamino)methyl)phenyl)-1H-imidazol-4-yl)-N-(1-(methylsulfonyl)piperidin-4-yl)-5-(trifluoromethyl)pyrimidin-2-amine], the IC50 was not above 50 nM.

Compound `CC1CN(Cc2ccc(-n3cnc(-c4nc(NC5CCN(S(C)(=O)=O)CC5)ncc4C(F)(F)F)c3)c(Cl)c2)C1` [Example 177, 4-(1-(2-Chloro-4-((3-methylazetidin-1-yl)methyl)phenyl)-1H-imidazol-4-yl)-N-(1-(methylsulfonyl)piperidin-4-yl)-5-(trifluoromethyl)pyrimidin-2-amine] registered an IC50 not above 50 nM.

As to `CS(=O)(=O)N1CCC(Nc2ncc(C(F)(F)F)c(-c3cn(-c4ccc(CN5CCCC5)cc4Cl)cn3)n2)CC1` [Example 178, 4-(1-(2-Chloro-4-(pyrrolidin-1-ylmethyl)phenyl)-1H-imidazol-4-yl)-N-(1-(methylsulfonyl)piperidin-4-yl)-5-(trifluoromethyl)pyrimidin-2-amine], the IC50 is not above 50 nM.

`CS(=O)(=O)N1CCC(Nc2ncc(C(F)(F)F)c(-c3cn(-c4ccc(CN5CC6CCC5CC6)cc4Cl)cn3)n2)CC1` [Example 179, 4-(1-(4-((2-Azabicyclo[2.2.2]octan-2-yl)methyl)-2-chlorophenyl)-1H-imidazol-4-yl)-N-(1-(methylsulfonyl)piperidin-4-yl)-5-(trifluoromethyl)pyrimidin-2-amine] returned a half-inhibitory concentration (IC50) not above 50 nM.

On to `CS(=O)(=O)N1CCC(Nc2ncc(C(F)(F)F)c(-c3cn(-c4ccc(CN5CC6CCC5C6)cc4Cl)cn3)n2)CC1` (centres unmarked) [Example 180, 4-(1-(4-((2-Azabicyclo[2.2.1]heptan-2-yl)methyl)-2-chlorophenyl)-1H-imidazol-4-yl)-N-(1-(methylsulfonyl)piperidin-4-yl)-5-(trifluoromethyl)pyrimidin-2-amine], for which the concentration for half-maximal inhibition (IC50) is not above 50 nM.

In turn, `C[C@@]1(O)CCN(Cc2ccc(-n3cnc(-c4nc(NC5CCN(S(C)(=O)=O)CC5)ncc4C(F)(F)F)c3)c(Cl)c2)C1` [Example 181, (R)-1-(3-Chloro-4-(4-(2-((1-(methylsulfonyl)piperidin-4-yl)amino)-5-(trifluoromethyl)pyrimidin-4-yl)-1H-imidazol-1-yl)benzyl)-3-methylpyrrolidin-3-ol] gave an IC50 not above 50 nM.

The compound `CNCc1ccc(-n2cnc(-c3nc(N[C@H]4CCN(S(C)(=O)=O)C[C@H]4C)ncc3C(F)(F)F)c2)c(Cl)c1` [Example 182, 4-(1-(2-Chloro-4-((methylamino)methyl)phenyl)-1H-imidazol-4-yl)-N-((3R,4S)-3-methyl-1-(methylsulfonyl)piperidin-4-yl)-5-(trifluoromethyl)pyrimidin-2-amine] came in with an IC50 not above 50 nM.

Turning to `CN(C)Cc1ccc(-n2cnc(-c3nc(N[C@H]4CCN(S(C)(=O)=O)C[C@H]4F)ncc3C(F)(F)F)c2)c(Cl)c1` [Example 183, 4-(1-(2-Chloro-4-((dimethylamino)methyl)phenyl)-1H-imidazol-4-yl)-N-((3R,4S)-3-fluoro-1-(methylsulfonyl)piperidin-4-yl)-5-(trifluoromethyl)pyrimidin-2-amine], the half-inhibitory concentration (IC50) is not above 50 nM.

For `CS(=O)(=O)N1CC[C@H](Nc2ncc(C(F)(F)F)c(-c3cn(-c4ccc(CN5CCC5)cc4Cl)cn3)n2)[C@H](F)C1` [Example 184, 4-(1-(4-(Azetidin-1-ylmethyl)-2-chlorophenyl)-1H-imidazol-4-yl)-N-((3R,4S)-3-fluoro-1-(methylsulfonyl)piperidin-4-yl)-5-(trifluoromethyl)pyrimidin-2-amine], the IC50 is not above 50 nM.

`CC(=O)NCc1ccc(-n2cnc(-c3nc(NC4CCN(S(C)(=O)=O)CC4)ncc3C(F)(F)F)c2)c(Cl)c1` [Example 185, N-(3-Chloro-4-(4-(2-((1-(methylsulfonyl)piperidin-4-yl)amino)-5-(trifluoromethyl)pyrimidin-4-yl)-1H-imidazol-1-yl)benzyl)acetamide] gave a half-maximal inhibitory concentration (IC50) not above 50 nM.

Take `CS(=O)(=O)N1CCC(Nc2ncc(C(F)(F)F)c(-c3cn(-c4ccc(CNCC(F)F)cc4Cl)cn3)n2)CC1` [Example 186, 4-(1-(2-Chloro-4-(((2,2-difluoroethyl)-amino)methyl)phenyl)-1H-imidazol-4-yl)-N-(1-(methylsulfonyl)-piperidin-4-yl)-5-(trifluoromethyl)-pyrimidin-2-amine]: the IC50 was not above 50 nM.

For the compound `CS(=O)(=O)N1CCC(Nc2ncc(C(F)(F)F)c(-c3cn(-c4ccc(CNCC#N)cc4Cl)cn3)n2)CC1` [Example 187, 2-((3-Chloro-4-(4-(2-((1-(methylsulfonyl)-piperidin-4-yl)amino)-5-(trifluoromethyl)-pyrimidin-4-yl)-1H-imidazol-1-yl)benzyl)-amino)acetonitrile], the IC50 is not above 50 nM.

As to `CS(=O)(=O)N1CCC(Nc2ncc(C(F)(F)F)c(-c3cn(-c4ccc(CNCC(F)(F)F)cc4Cl)cn3)n2)CC1` [Example 188, 4-(1-(2-Chloro-4-(((2,2,2-trifluoroethyl)-amino)methyl)phenyl)-1H-imidazol-4-yl)-N-(1-(methylsulfonyl)-piperidin-4-yl)-5-(trifluoromethyl)-pyrimidin-2-amine], the IC50 is not above 50 nM.

Compound `CCNCc1ccc(-n2cnc(-c3nc(NC4CCN(S(C)(=O)=O)CC4)ncc3C(F)(F)F)c2)c(Cl)c1` [Example 189, 4-(1-(2-Chloro-4-((ethylamino)methyl)-phenyl)-1H-imidazol-4-yl)-N-(1-(methyl-sulfonyl)piperidin-4-yl)-5-(trifluoro-methyl)pyrimidin-2-amine] came in with a half-inhibitory concentration (IC50) not above 50 nM.

Compound `CS(=O)(=O)N1CCC(Nc2ncc(C(F)(F)F)c(-c3cn(-c4ccc(CNC5CC5)cc4Cl)cn3)n2)CC1` [Example 190, 4-(1-(2-Chloro-4-((cyclopropylamino)-methyl)phenyl)-1H-imidazol-4-yl)-N-(1-(methylsulfonyl)-piperidin-4-yl)-5-(trifluoromethyl)-pyrimidin-2-amine] gave a 50% inhibitory concentration (IC50) not above 50 nM.

In turn, `CS(=O)(=O)N1CCC(Nc2ncc(C(F)(F)F)c(-c3cn(-c4ccc(CNCC5CC5)cc4Cl)cn3)n2)CC1` [Example 191, 4-(1-(2-Chloro-4-(((cyclopropylmethyl)-amino)methyl)phenyl)-1H-imidazol-4-yl)-N-(1-(methylsulfonyl)-piperidin-4-yl)-5-(trifluoromethyl)-pyrimidin-2-amine] came in with a half-inhibitory concentration (IC50) not above 50 nM.

Turning to `CCN(C)Cc1ccc(-n2cnc(-c3nc(NC4CCN(S(C)(=O)=O)CC4)ncc3C(F)(F)F)c2)c(Cl)c1` [Example 192], the concentration for half-maximal inhibition (IC50) is not above 50 nM.
